# Read-outs that look alike come from different tables or passages of the source.
# Assays:
# HCT-116(Kras^G13D) = assay: HCT-116 (Kras^G13D) antiproliferative activity (CellTiter Glo); type: cell-based; details: HCT-116 (Kras^G13D) cells, three days
# Method: Experiments for HCT-116(Kras^G13D) Antiproliferative Activity
# (1) cell medium: 89% Mc'Coy 5A, 10% fetal bovine serum and 1% penicillin-streptomycin;
# (2) the original medium in the cell culture flask was removed; the cells were digested with trypsin and then counted; and the cell suspension was diluted with the medium to a cell density of 2.5×10^4 cells per milliliter required for plating;
# (§1) (3) 100 μL of the medium was added to the outermost circle of wells of the cell plate; 80 μL of the cell suspension was added to other wells; and the plate was cultured overnight in a 37° C. incubator with 5% CO2.
# the compounds were subjected to a gradient dilution and then supplemented; and the cell plate was put back into the incubator for three days.
# (§2) adding CTG and reading the plate involve adding 20 μL of CellTiterGlo to each well of the cell plate, shaking the plate for 10 min in the dark, and reading the plate on Victor Nivo.
# cRAF protein = biological target: T1, cRAF protein (Homo sapiens, UniProt P04049); assay: c-RAF enzyme inhibitory activity (ADP-Glo, MEK1 substrate); type: biochemical; details: MEK1 and ATP substrate
# T1 construct: purchased Creative BioMart RAF1-416H
# Method: Experiments for c-RAF Enzyme Inhibitory Activity
# the compounds to be tested and reference compounds were diluted to 100 μM with DMSO, and the compounds were further subjected to a 3-fold gradient dilution using Echo to obtain target plates with 11 concentration gradients.
# 1) buffer formulation: 50 mM Tris-HCl (pH 7.4), 3.5 mM MgCl2, 150 mM NaCl, 1 mM DTT, 0.02% Triton X-100, H2O;
# 7) after 1 hour, the plate was read on Envision.
# Ca1u-6 (Kras^Q61K) = Ca1u-6 (Kras^Q61K) antiproliferative activity (CellTiter Glo); type: cell-based, human; details: Ca1u-6 (Kras^Q61K) cells, three days, read-out: Calu-6 anti-proliferative activity IC50
# Method: Experiments for Ca1u-6 (Kras^Q61K) Antiproliferative Activity
# (1) cell medium: 89% EMEM, 10% fetal bovine serum and 1% penicillin-streptomycin;
# (2) the original medium in the cell culture flask was removed; the cells were digested with trypsin and then counted; and the cell suspension was diluted with the medium to a cell density of 3.75×10^4 cells per milliliter required for plating;
# as §1
# the compounds were subjected to a gradient dilution and then supplemented using Echo; and the cell plate was put back into the incubator for three days.
# as §2
# [1] = tested on: ERK phosphorylation in Ca1u-6(Kras^Q61K); assay: Ca1u-6 (Kras^Q61K) ERK phosphorylation inhibition (HTRF); type: cell-based, human; details: 1 hour with compound, read-out: Calu-6 ERK phosphorylation inhibitory activity IC50
# Method: Experiments for Ca1u-6(Kras^Q61K) ERK Phosphorylation Inhibition
# (§3) 1) cells were resuscitated, cultured to a logarithmic growth phase, then digested with trypsin and seeded in a 96-well plate, and the plate was incubated overnight in an incubator;
# (§4) 2) serial gradients of compounds dissolved in DMSO were added to the 96-well plate, which was then put back into the incubator for 1 hour;
# 3) the cell plate was taken out; and the cells were incubated and lysed by adding cell lysates (containing 1% blocking peptide) for 30 minutes at room temperature;
# (§5) 4) 16 μL of cell lysates per well was transferred to the HTRF plate, and then 4 μL of the mixed antibody solution formulated thereby was added;
# (§6) 5) after overnight incubation, the plate was read on Envision; the fitted curves were obtained according to ratio (the ratio of Ex665/Ex615 fluorescence intensity); and EC50 was calculated with the four-parameter fitting formula, i.e., Y=Bottom+(Top−Bottom)/(1+10^((LogEC50−X)*Hill Slope)) on Graphpad.
# [2] = tested on: ERK phosphorylation in HCT116(Kras^G13D); assay: HCT116 (Kras^G13D) ERK phosphorylation inhibition (HTRF); type: cell-based, human; details: 1 hour with compound, read-out: HCT-116 ERK phosphorylation inhibitory activity IC50
# Method: Experiments for HCT116(Kras^G13D) ERK Phosphorylation Inhibition
# as §3, §4
# 3) the cell plate was taken out; the supernatant was removed; and the cells were incubated and lysed by adding cell lysates (containing 1% blocking peptide) for 30 minutes at room temperature;
# as §5, §6
# [3] = tested on: human lung cancer Ca1u-6 subcutaneous xenograft tumor; assay: In vivo pharmacodynamics, human lung cancer Ca1u-6 subcutaneous xenograft tumor BALB/c nude mouse model; details: 100 mg/kg PO QD × 21 days, Ca1u-6 xenograft, BALB/c nude mice
# Method: When the cell saturation was 80% to 90%, and the number reached the requirement, the cells were collected, counted and inoculated.
# Tumor diameter was measured twice a week with a vernier caliper.
# TGI (%) reflected the tumor growth inhibition rate.
# [4] = In vivo pharmacokinetics in mice; details: mouse, plasma, female CD-1 mice; for AUC: read-out: Curve area AUC
# Excerpt: Experiments for In Vivo Pharmacokinetics in Mice
# 2) Experimental animals: 4 female CD-1 mice, which were divided into 2 groups, 2 mice in each group;
# 3) Drug formulation: An appropriate amount of the drug was weighed and dissolved in an aqueous solution of solutol (5% by volume), DMSO (5% by volume) and PEG-300 (25% by volume) for injection administration. An appropriate amount of the drug was weighed and dispersed in a 5% solutol aqueous solution (80% by volume), and then PEG-400 (20% by volume) was added; the mixture was mixed well and used for intragastric administration. Solutol is polyethylene glycol-15-hydroxystearate.
# The animals in the first group were administered the compound at a dose of 2 mg/kg at a concentration of 1 mg/mL by intravenous administration. Plasma samples were collected from the animals at 0.117, 0.333, 1, 2, 4, 7 and 24 hours after administration. The animals in the second group were administered the compound at a dose of 100 mg/kg at a concentration of 10 mg/mL by intragastric administration. Plasma samples were collected from the animals at 0.0833, 0.25, 0.5, 1, 2, 4, 6, 8 and 24 hours after administration. The drug concentration at each point was determined by the LC-MS/MS method, and kinetic parameters of the tested drug were as follows: […]
# [5] = Homo sapiens, Calu-6, 1 h, Ca1u-6 (Kras^Q61K) cells
# [6] = Homo sapiens, HCT-116, 1 h, HCT116 (Kras^G13D) cells
# [7] = Homo sapiens, HCT-116, HCT116 (Kras^G13D) cells
# T1 sequence (P04049 whole entry): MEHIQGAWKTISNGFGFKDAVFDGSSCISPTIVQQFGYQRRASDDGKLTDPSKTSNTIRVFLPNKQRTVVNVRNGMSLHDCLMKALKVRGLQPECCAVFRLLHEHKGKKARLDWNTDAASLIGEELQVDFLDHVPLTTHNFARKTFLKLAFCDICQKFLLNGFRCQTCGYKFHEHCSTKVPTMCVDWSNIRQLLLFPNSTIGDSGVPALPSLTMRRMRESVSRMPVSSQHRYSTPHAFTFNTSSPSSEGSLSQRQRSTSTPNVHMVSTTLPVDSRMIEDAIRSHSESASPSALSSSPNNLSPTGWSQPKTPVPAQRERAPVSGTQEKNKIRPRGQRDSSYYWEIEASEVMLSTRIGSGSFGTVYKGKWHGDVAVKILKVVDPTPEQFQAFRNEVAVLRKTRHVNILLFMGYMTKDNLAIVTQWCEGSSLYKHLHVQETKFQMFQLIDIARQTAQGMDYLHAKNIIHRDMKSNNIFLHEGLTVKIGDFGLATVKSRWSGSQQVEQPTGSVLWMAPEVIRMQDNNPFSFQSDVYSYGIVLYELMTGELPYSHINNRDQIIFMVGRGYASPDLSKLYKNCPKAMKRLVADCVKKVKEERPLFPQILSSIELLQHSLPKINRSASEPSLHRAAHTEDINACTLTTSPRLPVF
SMILES,"IC50 (HCT-116(Kras^G13D); Homo sapiens, 72 h) [nM]",IC50 (cRAF protein) [nM],"IC50 [1, 5] [nM]","IC50 (Ca1u-6 (Kras^Q61K); Homo sapiens, Calu-6, 72 h) [nM]",further results
"Cc1ccc(NC(=O)c2ccnc(C(F)(F)F)c2)cc1-c1cc(OCCO)nc(C23CCOCC2C3)c1 (single isomer, unassigned) [Compound 1A]",600,2.5,220,1200,"IC50 [2, 6]: 140 nM"
"Cc1ccc(NC(=O)c2ccnc(C(F)(F)F)c2)cc1-c1cc(OCCO)nc(C23CCOCC2C3)c1 (single isomer, unassigned) [Compound 1B]",–,2,–,–,IC50 (HCT-116(Kras^G13D)): 600 nM; IC50 (Ca1u-6 (Kras^Q61K)): 960 nM; IC50 ([1]; Ca1u-6 (Kras^Q61K) cells): 250 nM; IC50 ([2]; HCT116 (Kras^G13D) cells): 220 nM
Cc1ccc(NC(=O)c2ccnc(C(F)(F)F)c2)cc1-c1cc(N(C)CCO)nc(C23CCOCC2C3)c1 (stereo not drawn) [Compound 2],2300,2.7,–,1100,"IC50 [2, 6]: 210 nM"
Cc1ccc(NC(=O)c2ccnc(C(F)(F)F)c2)cc1-c1cc(NCCO)nc(C23CCOCC2C3)c1 (stereo not drawn) [Compound 3],2300,1.7,–,1400,"IC50 [2, 6]: 190 nM"
Cc1ccc(NC(=O)c2ccnc(C(F)F)c2)cc1-c1cc(OCCO)nc(C23CCOCC2C3)c1 (stereo not drawn) [Compound 5],2600,1,170,4600,–
Cc1ccc(NC(=O)c2ccnc(C(C)(F)F)c2)cc1-c1cc(OCCO)nc(C23CCOCC2C3)c1 (stereo not drawn) [Compound 6],600,0.9,220,1000,–
Cc1ccc(NC(=O)c2ccnc(C(F)(F)F)c2)cc1-c1cc(OCCO)nc([C@]23COC[C@H]2C3)c1 [Compound 16B],1100,–,–,600,"relative tumor proliferation rate T/C [3]: 11.4%; tumor growth inhibition rate TGI [3]: 99.1%; bioavailability ([4]; oral, intragastric 100 mg/kg versus intravenous 2 mg/kg, read-out: Bioavailability F): 131%; Tmax ([4]; po, intragastric administration 100 mg/kg, read-out: Maximum concentration time Tmax): 1 h; clearance ([4]; intravenous administration 2 mg/kg, read-out: Clearance rate Cl): 25.8 mL/min/kg; Vd ([4]; intravenous administration 2 mg/kg, read-out: Distribution volume Vd): 2.75 L/kg; half-life ([4]; intravenous administration 2 mg/kg, read-out: Half-life T1/2 (converted)): 1.43 h; AUC ([4]; po, intragastric administration 100 mg/kg): 178 µM·h; Cmax ([4]; po, intragastric administration 100 mg/kg, read-out: Maximum concentration Cmax): 25 µM; AUC ([4]; intravenous administration 2 mg/kg): 2.61 µM·h; C0 ([4]; intravenous administration 2 mg/kg, read-out: Initial concentration C0): 2.01 µM; IC50 ([1]; Homo sapiens, Calu-6, Ca1u-6 (Kras^Q61K) cells): 490 nM; IC50 [2, 7]: 180 nM"
Cc1ccc(NC(=O)c2ccnc(C(F)(F)F)c2)cc1-c1cc(OCCO)nc(C23COCC2C3)c1 (stereo not drawn) [Compound 16],2200,–,–,1300,"IC50 [2, 7]: 160 nM"

# More lines, main results first:
"IC50 (HCT-116(Kras^G13D); Homo sapiens, 72 h) [nM]",IC50 (cRAF protein) [nM],"IC50 [1, 5] [nM]",SMILES,"IC50 (Ca1u-6 (Kras^Q61K); Homo sapiens, Calu-6, 72 h) [nM]",further results
–,2.5,–,Cc1ccc(NC(=O)c2ccnc(C(F)(F)F)c2)cc1-c1cc(SCCO)nc(C23CCOCC2C3)c1 (stereo not drawn) [Compound 7],–,–
1100,1.1,350,Cc1ccc(NC(=O)c2ccnc(C(F)(F)F)c2)cc1-c1cc(C23CCOCC2C3)cc(OCCO)n1 (stereo not drawn) [Compound 8],1000,–
800,1.2,180,Cc1ccc(NC(=O)c2ccnc(C(F)(F)F)c2)cc1-c1cc(OC[C@H](O)CO)nc(C23CCOCC2C3)c1 (stereo partly drawn) [Compound 9],6400,–
5300,2.5,–,COC[C@@H](O)COc1cc(-c2cc(NC(=O)c3ccnc(C(F)(F)F)c3)ccc2C)cc(C23CCOCC2C3)n1 (stereo partly drawn) [Compound 10],7100,–
800,2.8,430,Cc1ccc(NC(=O)c2ccnc(C(F)(F)F)c2)cc1-c1cc(OCCO)nc(C23CCOCC2C3(F)F)c1 (stereo not drawn) [Compound 11],1100,–
200,–,390,Cc1ccc(NC(=O)c2ccnc(C(F)(F)F)c2)cc1-c1cc(N2CC(O)C2)nc(C23CCOCC2C3)c1 (stereo not drawn) [Compound 13],200,–
400,–,330,Cc1ccc(NC(=O)c2ccnc(C(F)(F)F)c2)cc1-c1cc(OCCO)nc(C23CCOCC2(C#N)C3)c1 (stereo not drawn) [Compound 14],3500,–
900,–,330,Cc1ccc(NC(=O)c2ccnc(C(F)(F)F)c2)cc1-c1cc(OCC(C)(C)O)nc(C23CCOCC2C3)c1 (stereo not drawn) [Compound 15],4700,–

# Source: patent US20230046018A1, “BIARYL COMPOUND AS PAN-RAF KINASE INHIBITOR” (MEDSHINE DISCOVERY INC., priority 2019, published 2023)
